Laboratory results reported in paper PMC5792594, “Engineering yeast for the production of breviscapine by genomic analysis and synthetic biology approaches” (Nature Communications, 2018).

System: T1, EbF7GAT
T1 construct: gene F7GAT; tag removal not mentioned
Test: HPLC of glucuronide product, initial-rate kinetics
Format: biochemical, Erigeron breviscapus
Details: UDP-glucuronic acid as donor (1 mM in standard assay), 50 mM Tris-HCl pH 7.5, 37 °C

| Km (10 min, 0.1-20 µM apigenin) [µM] | Km (5-300 µM scutellarein) [µM] | SMILES |
| --- | --- | --- |
| 9.24 | – | O=c1cc(-c2ccc(O)cc2)oc2cc(O)cc(O)c12 [apigenin] |
| – | 70.2 | O=c1cc(-c2ccc(O)cc2)oc2cc(O)c(O)c(O)c12 [scutellarein] |
